# Test results reported in patent US20250281456A1, “METHODS OF TREATING CANCER BY INHIBITING BACTERIAL DNAK TO RESTORE ACTIVITIES OF ANTICANCER DRUGS” (University of Maryland, Baltimore, priority 2022, published 2025).
# Like-named read-outs stand apart in the source and are kept apart here.
# What was measured:
# HCT116 cells [1] = assay: HCT116 cell viability (trypan blue) with cisplatin, exogenous DnaKs and DnaK inhibitor (Example 4); format: cell-based, human
# Method: After 24 h, both eM-DnaK and eF-DnaK were added to the cultures at a concentration of 10 ug/ml. […] Parallel cultures of untreated cells were the negative control. […] After 48 h of treatment with the anti-cancer drugs, cell monolayers were washed in PBS, trypsinized and cell viability was measured using the trypan blue assay. The trypan blue exclusion assay allows for a direct identification and enumeration of live (unstained) and dead (blue) cells in the given population.
# More in detail, we pre-treated both DnaKs with Telaprevir (25 μg/ml) before adding them to the culture of HCT116 cells. After 3 h of incubation the complex was added to the culture. After 24 h the cells were treated with the anti-cancer drugs and then subjected to count with trypan blue as previously described. Parallel cultures of cells treated with the drugs and DnaKs not complexed with Telaprevir were used as control.
# M. tuberculosis DnaK = M. tuberculosis DnaK (Mycobacterium tuberculosis, UniProt P9WMJ9); conditions: previously demonstrated; cited from earlier work
# AGS cells = assay: cells; conditions: Homo sapiens, 48 h
# Method: (§1) FIG. 11. […] Parallel wells of untreated cells were used as negative control. Cell viability was assessed by using the trypan blue assay. Percentage of alive cells for each treatment are calculated as percentage using the untreated cell as reference. […] Statistical differences were tested using Student's t test. All statistical tests were two sided. p=***<0.001, **<0.01, *<0.05, ns=not significant.
# as §1, with “14.” for “11.”, “p=*<0.05,” for “p=***<0.001,”, “***<0.001.” for “*<0.05, ns=not significant.”
# (§2) To determine the effects of eM and eF-DnaKs on HCT116 and AGS cells lines treated with different anti-cancer drugs, cells were plated 200,000 cells/well in 6-wells plates. After 24 h, both eM-DnaK and eF-DnaK were added to the cultures at a concentration of 10 ug/ml. […] Parallel cultures of untreated cells were the negative controls. […] After 48 h of treatment with the anti-cancer drugs, cell monolayers were washed in PBS, trypsinized and cell viability was measured using the trypan blue assay. The trypan blue exclusion assay allows for a direct identification and enumeration of live (unstained) and dead (blue) cells in the given population.
# (§3) More in detail, we pre-treated both exogenous DnaKs with ARV-1502 (25 μg/ml) before adding them to the culture of HCT116 or AGS cells. After 3 h of incubation the complex was added to the culture. After 24 h the cells were treated with the anti-cancer drugs and then subjected to count with trypan blue as previously described. Parallel cultures of cells treated with the drugs and DnaKs not complexed with ARV-1502 were used as control.
# HCT116 cells [2] = assay: cells; conditions: Homo sapiens, HCT-116, 48 h, 48 h
# Method: as §1
# as §1, with “14.” for “11.”, “p=*<0.05,” for “p=***<0.001,”, “***<0.001.” for “*<0.05, ns=not significant.”
# as §2, §3
# [3] = test system: HCT116 cells infected with Mycoplasma; assay: Cell viability of Mycoplasma-infected HCT116 cells (LIVE/DEAD kit); format: cell-based, human; conditions: 5FU or Nutlin-3, 48 hours
# Method: FIG. 2. DnaK negatively affects p53 activities and Mycoplasma infection reduces the effect of anti-cancer drugs. (A) DnaK reduces p53-associated activities in HCT116 cells. Levels of p53, p21, Bax and PUMA proteins were analyzed in control, vector and DnaK transfected cells at different time-points (2, 8 and 16 hours). Expression of DnaK was verified using the anti-V5 antibody. NT: not transfected; VT: vector transfected; DnaK: DnaK transfected; M: media; D: DMSO; N: Nutlin. β-act: β-actin. Band intensity was measured by densitometric analysis. Numbers above bands indicate fold increase above level of nutlin-treated DnaK-transfected cells, normalized for the levels of β-actin. (B) DnaK increases cell cycle progression. HCT116 cells were transfected with a DnaK-expressing vector and subsequently analyzed for cell cycle progression. Data were collected 16-24 hours after transfection. Results represent mean and standard deviations of 5 different experiments. […] Results are expressed as percent cell viability over control (uninfected cells in media alone were considered as 100%). Mean difference is shown. *=p<0.001—calculated using Poisson regression.
# HCT116 cells (colon carcinoma cell line) were obtained from ATCC. […] In all experiments cell viability was calculated as a percentage relative to the control cultures. […]
# [4] = test system: primary murine cancer cells constitutively expressing DnaK; assay: cells; conditions: Mus musculus, read-out: cell viability
# [5] = target: Mycoplasma fermentans DnaK-V5, expressed inside cells (codon-optimized DnaK vector transfected into (Mycoplasma fermentans)); assay: cell-based or functional assay
# [6] = target: Recombinant purified exogenous Mycoplasma fermentans DnaK-V5 protein (eM-DnaK) (Mycoplasma fermentans); assay: SPR (BIAcore T100), eM-DnaK immobilized on CM5 chip (2274.9 RU), ARV-1502 as analyte
compound,measurement,setting,value
"CCC[C@H](NC(=O)[C@@H]1[C@H]2CCC[C@H]2CN1C(=O)[C@@H](NC(=O)[C@@H](NC(=O)c1cnccn1)C1CCCCC1)C(C)(C)C)C(=O)C(=O)NC1CC1 [Telaprevir, (3S,3aS,6aR)-2-[(2S)-2-[[(2S)-2-cyclohexyl-2-(pyrazine-2-carbonylamino)acetyl]amino]-3,3-dimethylbutanoyl]-N-[(3S)-1-(cyclopropylamino)-1,2-dioxohexan-3-yl]-3,3a,4,5,6,6a-hexahydro-1H-cyclopenta[c]pyrrole-3-carboxamide]",restoration of cisplatin anti-cancer activity,"HCT116 cells [1]; HCT116, cisplatin in the presence of eM-DnaK or eF-DnaK pre-treated with Telaprevir (25 μg/ml)",restoration of the original anti-cancer activity
same,DnaK binding and ATPase activity,M. tuberculosis DnaK,bind to M. tuberculosis DnaK substrate-binding domain and to reduce its ATPase activity
"O=c1[nH]cc(F)c(=O)[nH]1 [5FU, 5-Fluorouracil]",viability at 75 µM,"AGS cells; read-out: cell viability, AGS, drug alone (eF-DnaK experiment), Cisplatin 2 μM or 5FU 75 μM, 48 h, % of untreated cells",31%
same,viability at 75 µM,"AGS cells; read-out: cell viability, AGS, drug alone (eM-DnaK experiment), Cisplatin 25 μM or 5FU 75 μM, 48 h, % of untreated cells",15%
same,viability at 75 µM,"AGS cells; read-out: cell viability, AGS, drug in the presence of eF-DnaK (10 ug/ml), Cisplatin 2 μM or 5FU 75 μM, 48 h",42%
same,viability at 75 µM,"AGS cells; read-out: cell viability, AGS, drug in the presence of eM-DnaK (10 ug/ml), Cisplatin 25 μM or 5FU 75 μM, 48 h",33%
same,viability at 75 µM,"HCT116 cells [2]; read-out: cell viability, HCT116, drug alone (eF-DnaK experiment), Cisplatin 2 μM or 5FU 75 μM, % of untreated cells",14%
same,viability at 75 µM,"HCT116 cells [2]; read-out: cell viability, HCT116, drug alone (eM-DnaK experiment), Cisplatin 25 μM or 5FU 75 μM, % of untreated cells",14%
same,viability at 75 µM,"HCT116 cells [2]; read-out: cell viability, HCT116, drug in the presence of eF-DnaK (10 ug/ml), Cisplatin 2 μM or 5FU 75 μM",17%
same,viability at 75 µM,"HCT116 cells [2]; read-out: cell viability, HCT116, drug in the presence of eM-DnaK (10 ug/ml), Cisplatin 25 μM or 5FU 75 μM",16%
same,effect of Mycoplasma infection on drug activity (cell viability),[3],resistance to these anti-cancer drugs
same,viability at 75 µM,[4],55%
ARV-1502 (peptide),"cell viability of DnaK-expressing primary murine cancer cells, 5FU plus ARV-1502",[5],40%
same,Kd,[6],1.9 µM
"COc1ccc(C2=N[C@@H](c3ccc(Cl)cc3)[C@@H](c3ccc(Cl)cc3)N2C(=O)N2CCNC(=O)C2)c(OC(C)C)c1 [Nutlin, Nutlin-3]",effect of Mycoplasma infection on drug activity (cell viability),[3],resistance to these anti-cancer drugs
N.N.[Cl][Pt][Cl] [cisplatin],blunting of the anti-cancer effect of the drug,"HCT116 cells [1]; HCT116, cisplatin in the presence of eM-DnaK or eF-DnaK",40-50%
"COc1cc(C(=O)NS(=O)(=O)c2ccccc2C)ccc1Cc1cn(C)c2ccc(NC(=O)OC3CCCC3)cc12 [Zafirlukast, zafirlukast]",restoration of cisplatin anticancer activity,"HCT116 cells [1]; HCT116, cisplatin in the presence of DnaK from M. fermentans and F. nucleatum (FIG. 9)",restores anticancer activity of cisplatin
